Laboratory results from patent US9301911B2, “Composition comprising tauroursodeoxycholic acid” (priority 2012, dated 2016).

Legend:
collagenase = experiment: Inhibitory activity on collagenase (azocoll assay); format: biochemical; conditions: for Comparative inhibitory activity: [collagenase-inhibitory percentage of TUDCA / that of UDCA]*100
Description: The inhibitory activities of tauroursodeoxycholic acid (TUDCA) and ursodeoxycholic acid (UDCA) on collagenase were evaluated according to an azocoll assay method. Azocoll, Azo dye-impregnated collagen, is not dissolved in Tris-buffer. […] Therefore, by reacting said test materials with azocoll and then measuring the respective absorbance, the inhibitory activities of said materials on collagenase can be determined.
2% Azocoll solution (200 μl) and a buffer solution (0.01 M Tris-HCl, 1 mM CaCl2, pH 7.8) (150 μl) were respectively added to the 6 test tubes to obtain the solutions (Solution A1 to A6). Each solution (100 μl) obtained by dissolving TUDCA or UDCA in 10% ethanol in various concentrations was added to the solutions A1 to A6, so as to obtain the final concentrations of 1.600 w/v %, 0.533 w/v %, and 0.178 w/v %, respectively. Collagenase (50 μl) having 100 ppm concentration was added to the respective test mixture, which was then stirred in a 37° C. incubator for 18 hours. Each test tube was centrifuged for 5 minutes. The supernatant was separated from each test tube and then added to a 96-well plate. The absorbance at 540 nm was measured by a spectrophotometer and then the activity of the test group was determined from the standard activity curve. The standard activity curve was separately prepared by adding 10, 25, 50, and 100 μl of collagenase to the azocoll solution.
The collagenase-inhibitory ratio of TUDCA to the collagenase-inhibitory ratio of UDCA was determined according to the following formula and the results thereof are shown in Table 1. Comparative inhibitory activity=[Collagenase-inhibitory percentage of TUDCA/Collagenase-inhibitory percentage of UDCA]*100

S. mutans = experiment: Antimicrobial activity against S. mutans (growth inhibition, O.D. 600 nm); format: cell-based, Streptococcus mutans
Description: We evaluated antimicrobial activities of TUDCA (PRODOTTI CHIMICI E ALIMENTARI S.p.A. Co., Italy), bamboo salt, xanthorrhiza oil (curcuma xanthorrhiza oil having 22-35% of xanthorrhizol, ‘Curcuma Xanthorrhiza Essential Oil’ extracted from Curcuma Xanthorrhiza Root, Daewoong Bio Inc.), and a mixture thereof, against S. Mutans. Briefly, to each well of a 96-well plate, were added 100 μl of BHI broth (Brain Heart Infusion broth, Sigma-Aldrich) and each test material in two times higher concentration than the concentration shown in the following Table 2. S. mutans was cultured in BHI broth (Brain Heart Infusion broth, Sigma-Aldrich) at 35° C. for 24 hours. Absorbance at 600 nm of the S. mutans-containing culture medium was adjusted to 0.063 to 0.12 and then the resulting culture medium was diluted to 1/500. The diluted S. Mutans-containing culture medium (100 μl) was added to each well of the 96-well plate. The 96-well plate was incubated at 35° C. for 24 hours, followed by measuring the O.D. values at 600 nm with a spectrophotometer for obtaining the respective growth inhibition percentage.
Antimicrobial activities against S. mutans were evaluated using TUDCA in a relatively low concentration. Using the same kinds of TUDCA, bamboo salt, and xanthorrhiza oil, the evaluations of antimicrobial activity were carried out in the same manners as in Example 2.

For `C[C@H](CCC(=O)NCCS(=O)(=O)O)[C@H]1CC[C@H]2[C@@H]3[C@@H](O)C[C@@H]4C[C@H](O)CC[C@]4(C)[C@H]3CC[C@]12C` [TUDCA, tauroursodeoxycholic acid], the “inhibitory activity against collagenase in comparison with UDCA” value (collagenase; at the same concentration, in comparison with UDCA) was “about two times more strong inhibitory activity against collagenase”, the Comparative inhibitory activity (collagenase; test material 0.178 w/v %) was 264.75% and the Comparative inhibitory activity (collagenase; test material 0.533 w/v %) was 252.56%. For the same compound, the Comparative inhibitory activity (collagenase; test material 1.600 w/v %) was 227.17%, the Growth inhibition (S. mutans; Table 2, TUDCA 0.5 w/v %) was 38 ± 16% and the Growth inhibition (S. mutans; Table 2, TUDCA 1 w/v %) was 51 ± 13%. For the same compound, the Growth inhibition (S. mutans; Table 3, TUDCA 0.01 w/v %) was 13% and the “growth-inhibition activity against S. mutans (in words)” value (S. mutans; summary of Table 2) was “effective growth-inhibition activity”.
